Reference: ChEMBL document CHEMBL1136214, “Indole-based heterocyclic inhibitors of p38alpha MAP kinase: designing a conformationally restricted analogue” (Bioorg Med Chem Lett, 2003)

target: Mitogen-activated protein kinase 14 (Homo sapiens, UniProt Q16539); assay: Inhibition of Mitogen-activated protein kinase p38 alpha
Sequence (Q16539 whole entry): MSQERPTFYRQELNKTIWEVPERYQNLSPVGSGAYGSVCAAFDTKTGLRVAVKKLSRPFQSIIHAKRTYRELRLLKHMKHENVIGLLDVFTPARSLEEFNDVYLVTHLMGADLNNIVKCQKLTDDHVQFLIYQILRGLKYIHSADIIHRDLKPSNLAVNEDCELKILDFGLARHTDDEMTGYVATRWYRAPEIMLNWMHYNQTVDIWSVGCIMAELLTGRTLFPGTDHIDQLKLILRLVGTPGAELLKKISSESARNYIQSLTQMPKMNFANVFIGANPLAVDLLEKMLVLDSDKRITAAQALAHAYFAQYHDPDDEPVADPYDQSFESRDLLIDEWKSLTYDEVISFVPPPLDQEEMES

Compound | IC50
COc1cc2[nH]ccc2cc1C(=O)N1C[C@@H](C)N(Cc2ccccc2)C[C@@H]1C | 1650 nM
COc1cc2[nH]ccc2cc1C(=O)N1C[C@H](C)N(Cc2ccccc2)C[C@H]1C | 20 nM
O=C(c1cccc2cc[nH]c12)N1CCN(Cc2ccccc2)CC1 | > 30000 nM
COc1cc2[nH]ccc2cc1C(=O)N1CCN(Cc2ccccc2)CC1 | 950 nM
COc1cc2[nH]ccc2cc1C(=O)N1C[C@H](C)N(Cc2ccccc2)C[C@H]1C (racemic) | 70 nM
C[C@@H]1CN(Cc2ccccc2)[C@@H](C)CN1C(=O)c1ccc2[nH]ccc2c1 | 1300 nM
